Test results: PubChem BioAssay AID248 (DTP/NCI, 2004)
Values joined by “and” are separate entries in the source; they are usually repeats but may differ in a detail not shown here. Equal values may be shown once. Inconclusive results and toxic doses are left out.

Tested on: L1210 leukemia ip in BDF1 mice, survival T/C
Experiment: NCI In Vivo Anticancer Drug Screen. Data for tumor model L1210 Leukemia (intraperitoneal) in B6D2F1 (BDF1) mice
Settings: endpoint: mean survival time, higher = longer survival
In short: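 Tumor was transplanted into mice, which were then dosed with test compound or vehicle alone. Survival was recorded for each group, and the treated figure was expressed relative to the control figure.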

NC(=S)N/N=C/c1ccccn1
T/C (dose: 0.48 mg/kg/injection, schedule: Q01DX009 (ip), vehicle: saline with Tween-80): 97 % of control and 115 % of control
T/C (dose: 0.9 mg/kg/injection, schedule: Q04DX002 (ip), vehicle: saline with Tween-80): 100 % of control and 107 % of control
T/C (dose: 0.95 mg/kg/injection, schedule: Q01DX009 (ip), vehicle: saline with Tween-80): 106 % of control and 115 % of control
T/C (dose: 1.0 mg/kg/injection, schedule: Q03HX032 (ip), vehicle: other): 117 % of control
T/C (dose: 1.3 mg/kg/injection, schedule: Q01DX Z (ip), vehicle: carboxymethylcellulose (CMC)): 118 % of control
T/C (dose: 1.8 mg/kg/injection, schedule: Q03HX024 (ip), vehicle: carboxymethylcellulose (CMC)): 92 % of control
T/C (dose: 1.8 mg/kg/injection, schedule: Q03HX024 (ip), vehicle: other): 111 % of control
T/C (dose: 1.8 mg/kg/injection, schedule: Q04DX002 (ip), vehicle: saline with Tween-80): 106 % of control and 110 % of control
T/C (dose: 1.9 mg/kg/injection, schedule: Q01DX009 (ip), vehicle: saline with Tween-80): 113 % of control and 121 % of control
T/C (dose: 2.6 mg/kg/injection, schedule: Q03HX032 (ip), vehicle: other): 213 % of control
T/C (dose: 3.0 mg/kg/injection, schedule: Q01DX015 (ip), vehicle: saline): 105 % of control
T/C (dose: 3.0 mg/kg/injection, schedule: Q03HX032 (ip), vehicle: other): 168 % of control
T/C (dose: 3.5 mg/kg/injection, schedule: Q03HX008 (ip), vehicle: other): 164 % of control
T/C (dose: 3.5 mg/kg/injection, schedule: Q03HX016 (ip), vehicle: other): 192 % of control
T/C (dose: 3.5 mg/kg/injection, schedule: Q03HX024 (ip), vehicle: other): 368 % of control
T/C (dose: 3.5 mg/kg/injection, schedule: Q04DX002 (ip), vehicle: saline with Tween-80): 104 % of control and 91 % of control
T/C (dose: 3.8 mg/kg/injection, schedule: Q01DX009 (ip), vehicle: saline with Tween-80): 121 % of control
T/C (dose: 4.0 mg/kg/injection, schedule: Q03HX024 (ip), vehicle: carboxymethylcellulose (CMC)): 197 % of control
T/C (dose: 4.0 mg/kg/injection, schedule: Q03HX024 (ip), vehicle: other): 337 % of control
T/C (dose: 4.0 mg/kg/injection, schedule: Q03HX024 (ip), vehicle: saline with Tween-80): 345 % of control
T/C (dose: 4.4 mg/kg/injection, schedule: Q01DX009 (ip), vehicle: saline): 114 % of control
T/C (dose: 4.4 mg/kg/injection, schedule: Q02DX010 (ip), vehicle: carboxymethylcellulose (CMC)): 114 % of control
T/C (dose: 5.0 mg/kg/injection, schedule: Q01DX015 (ip), vehicle: saline): 103 % of control
T/C (dose: 5.0 mg/kg/injection, schedule: Q03HX008 (ip), vehicle: other): 175 % of control
T/C (dose: 5.0 mg/kg/injection, schedule: Q03HX016 (ip), vehicle: other): 261 % of control
T/C (dose: 5.0 mg/kg/injection, schedule: Q03HX024 (ip), vehicle: other): 526 % of control
T/C (dose: 5.0 mg/kg/injection, schedule: Q03HX032 (ip), vehicle: other): 420 % of control
T/C (dose: 5.0 mg/kg/injection, schedule: Q04DX003 (ip), vehicle: other): 105 % of control
T/C (dose: 5.0 mg/kg/injection, schedule: Q04DX003 (ip), vehicle: saline with Tween-80): 116 % of control
T/C (dose: 5.0 mg/kg/injection, schedule: Q08DX002 (ip), vehicle: other): 102 % of control
T/C (dose: 6.0 mg/kg/injection, schedule: Q03HX024 (ip), vehicle: saline with Tween-80): 376 % of control
T/C (dose: 6.6 mg/kg/injection, schedule: Q02DX010 (ip), vehicle: carboxymethylcellulose (CMC)): 121 % of control
T/C (dose: 6.7 mg/kg/injection, schedule: Q01DX015 (ip), vehicle: other): 169 % of control
T/C (dose: 6.7 mg/kg/injection, schedule: Q02DX010 (ip), vehicle: carboxymethylcellulose (CMC)): 114 % of control
T/C (dose: 7.0 mg/kg/injection, schedule: Q01DX015 (ip), vehicle: saline): 152 % of control
T/C (dose: 7.0 mg/kg/injection, schedule: Q04DX002 (ip), vehicle: saline with Tween-80): 107 % of control and 116 % of control
T/C (dose: 7.5 mg/kg/injection, schedule: Q03HX032 (ip), vehicle: other): 150 % of control
T/C (dose: 8.0 mg/kg/injection, schedule: Q04DX003 (ip), vehicle: other): 101 % of control
T/C (dose: 8.0 mg/kg/injection, schedule: Q08DX002 (ip), vehicle: other): 104 % of control
T/C (dose: 10.0 mg/kg/injection, schedule: Q01DX009 (ip), vehicle: other): 155 % of control
T/C (dose: 10.0 mg/kg/injection, schedule: Q01DX009 (ip), vehicle: saline): 114 % of control
T/C (dose: 10.0 mg/kg/injection, schedule: Q01DX015 (ip), vehicle: other): 164 % of control
T/C (dose: 10.0 mg/kg/injection, schedule: Q02DX010 (ip), vehicle: carboxymethylcellulose (CMC)): 120 % of control
T/C (dose: 10.0 mg/kg/injection, schedule: Q04DX003 (ip), vehicle: saline with Tween-80): 114 % of control
T/C (dose: 10.7 mg/kg/injection, schedule: Q01DX Z (ip), vehicle: carboxymethylcellulose (CMC)): 116 % of control
T/C (dose: 11.0 mg/kg/injection, schedule: Q01DX015 (ip), vehicle: saline): 116 % of control
T/C (dose: 12.0 mg/kg/injection, schedule: Q04DX003 (ip), vehicle: other): 107 % of control
T/C (dose: 12.0 mg/kg/injection, schedule: Q08DX002 (ip), vehicle: other): 100 % of control
T/C (dose: 14.0 mg/kg/injection, schedule: Q04DX002 (ip), vehicle: saline with Tween-80): 110 % of control and 112 % of control
T/C (dose: 14.5 mg/kg/injection, schedule: Q01DX001 (ip), vehicle: other): 105 % of control
T/C (dose: 15.0 mg/kg/injection, schedule: Q01DX009 (ip), vehicle: other): 159 % of control
T/C (dose: 15.0 mg/kg/injection, schedule: Q02DX010 (ip), vehicle: carboxymethylcellulose (CMC)): 120 % of control and 121 % of control (2×)
T/C (dose: 17.0 mg/kg/injection, schedule: Q01DX015 (ip), vehicle: saline): 104 % of control
T/C (dose: 18.0 mg/kg/injection, schedule: Q04DX003 (ip), vehicle: other): 112 % of control
T/C (dose: 18.0 mg/kg/injection, schedule: Q08DX002 (ip), vehicle: other): 97 % of control
T/C (dose: 20.0 mg/kg/injection, schedule: Q04DX003 (ip), vehicle: saline with Tween-80): 109 % of control
T/C (dose: 22.0 mg/kg/injection, schedule: Q01DX001 (ip), vehicle: other): 101 % of control and 114 % of control
T/C (dose: 22.5 mg/kg/injection, schedule: Q02DX010 (ip), vehicle: carboxymethylcellulose (CMC)): 109 % of control and 90 % of control
T/C (dose: 25.0 mg/kg/injection, schedule: Q01DX015 (ip), vehicle: saline): 90 % of control
T/C (dose: 27.0 mg/kg/injection, schedule: Q04DX003 (ip), vehicle: other): 104 % of control
T/C (dose: 27.0 mg/kg/injection, schedule: Q08DX002 (ip), vehicle: other): 95 % of control
T/C (dose: 28.0 mg/kg/injection, schedule: Q04DX002 (ip), vehicle: saline with Tween-80): 104 % of control and 107 % of control
T/C (dose: 30.0 mg/kg/injection, schedule: Q01DX009 (ip), vehicle: saline with Tween-80): 90 % of control
T/C (dose: 33.0 mg/kg/injection, schedule: Q01DX001 (ip), vehicle: other): 105 % of control and 112 % of control
T/C (dose: 34.0 mg/kg/injection, schedule: Q02DX010 (ip), vehicle: carboxymethylcellulose (CMC)): 73 % of control and 89 % of control
T/C (dose: 50.0 mg/kg/injection, schedule: Q01DX001 (ip), vehicle: other): 104 % of control

NC(N)=N/N=C\c1c[nH]c2ccc(Br)cc12
T/C (dose: 15.0 mg/kg/injection, schedule: Q01DX Z (ip), vehicle: saline): 96 % of control
T/C (dose: 30.0 mg/kg/injection, schedule: Q01DX Z (ip), vehicle: saline): 113 % of control
T/C (dose: 60.0 mg/kg/injection, schedule: Q01DX Z (ip), vehicle: saline): 103 % of control
T/C (dose: 120.0 mg/kg/injection, schedule: Q01DX Z (ip), vehicle: saline): 106 % of control
T/C (dose: 240.0 mg/kg/injection, schedule: Q01DX Z (ip), vehicle: saline): 98 % of control
T/C (dose: 240.0 mg/kg/injection, schedule: Q01DX Z (oral), vehicle: saline): 94 % of control
T/C (dose: 480.0 mg/kg/injection, schedule: Q01DX Z (oral), vehicle: saline): 94 % of control
